# Values joined by “and” are separate entries in the source; they are usually repeats but may differ in a detail not shown here. Identical values can stand only once.
# Assay: Part 1: pharmacokinetics of rimegepant 75 mg ODT alone or coadministered with cyclosporine 200 mg, 2-way crossover
# Experimental: This phase 1, open‐label, randomized, single‐dose, 2‐way crossover, 2‐part, drug‐drug interaction study was conducted at a single center (Syneos Health, Québec, Canada). Subjects were screened within 28 days preceding administration of study medication. In part 1, fasted subjects were randomly assigned to a single dose of rimegepant 75 mg ODT or a single dose of rimegepant 75 mg ODT coadministered with cyclosporine 200 mg (2 × 100‐mg capsules). […] Following the completion of part 1, an interim PK analysis and review of data were performed. Part 2 was to be conducted only if the rimegepant AUC from time 0 to infinity (AUC0‐inf) ratio of geometric means in part 1 was increased by >50% when coadministered with cyclosporine. In part 2, fasted subjects were randomly assigned to a single dose of rimegepant 75 mg ODT or a single dose of rimegepant 75 mg ODT coadministered with quinidine 600 mg (2 × 300‐mg tablets).
# In part 1, subjects received 1 of the following treatments under fasting conditions: 1 oral dose of rimegepant 75 mg ODT (Catalent Pharma Solutions, Swindon, UK) or 1 oral dose of rimegepant 75 mg ODT coadministered with cyclosporine 200 mg (Novartis Pharmaceuticals Canada Inc., Dorval, Quebec, Canada). In part 2, subjects received 1 of the following treatments under fasting conditions: 1 oral dose of rimegepant 75 mg ODT alone or 1 oral dose of rimegepant 75 mg ODT coadministered with quinidine 600 mg (Sandoz Inc., West Princeton, New Jersey). In parts 1 and 2, the interval between treatments could not exceed 2 minutes.
# For each treatment, subjects were confined from the morning of day −1 until after the 24‐hour postdose blood draw on day 2. Subjects returned for all subsequent blood draws. No food was allowed from at least 10 hours before dosing until at least 4 hours after dosing. Meals were standardized and similar in composition between periods. Except for water given with cyclosporine and quinidine, no fluids were allowed from 1 hour before dosing until 1 hour after dosing. Water was provided ad libitum at all other times. […] When appropriate, subjects were accompanied by a staff member while walking.
# In each period, 20 blood samples for PK assessment were collected at the following time points: before dosing; 5, 10, 20, 30, 40, and 50 minutes after dosing; and 1, 1.5, 2, 2.5, 3, 4, 5, 6, 8, 12, 24 (day 2), 48 (day 3), and 72 (day 4) hours after dosing. […] Plasma samples were assayed for rimegepant using ultra‐performance liquid chromatography with tandem mass spectrometry detection (LC‐MS/MS). The quantifiable range was 10 to 5000 ng/mL. Plasma samples containing human ethylenediaminetetraacetic acid (EDTA) K2 plasma as an anticoagulant were processed using automated protein precipitation before LC‐MS/MS analysis. The internal standard was rimegepant‐^13C2d4. The validation was performed using an API 5000 LC/MS/MS system with Analyst software, version 1.6.3 (SCIEX, Framingham, Massachusetts). The pump flow was isocratic, with a flow rate set at 0.600 mL/min. The column was an Acquity UPLC BEH C18, 50×2.1 mm, 1.7 μm (Waters Corporation, Framingham, Massachusetts), which was maintained at a temperature of 60°C and contained Milli‐Q type water/acetonitrile with ammonium acetate and acetic acid. The mass‐to‐charge ratios monitored for rimegepant were 535.4 for the precursor ion and 256.1 for the product ion, whereas for the internal standard, they were 541.4 for the precursor ion and 256 for the product ion. […] Incurred sample reanalysis was carried out on ≈10% of randomly selected samples.
# The effects of cyclosporine (part 1) or quinidine (part 2) on the single‐dose PK of rimegepant were evaluated using general linear model procedures in SAS (SAS Institute, Cary, North Carolina).
# [1] = by cyclosporine 200 mg, single dose rimegepant 75 mg ODT, vs rimegepant alone
# [2] = coadministration with cyclosporine 200 mg, rimegepant 75 mg
# [3] = strong P‐gp inhibitors (cyclosporine, quinidine), parts 1 and 2
smiles,measurement,setting,value
N[C@@H]1c2cccnc2[C@H](OC(=O)N2CCC(n3c(=O)[nH]c4ncccc43)CC2)CC[C@H]1c1cccc(F)c1F [Rimegepant],increase in rimegepant AUC0‐inf,[1],60.1% and 60%
same,increase in rimegepant Cmax,[1],41%
same,rimegepant AUC0‐inf geometric mean ratio (90% CI) versus rimegepant alone,[2],1.6 (1.49‐1.72)
same,rimegepant Cmax geometric mean ratio (90% CI) versus rimegepant alone,[2],1.41 (1.27‐1.57)
same,Tmax,"human, in vivo, po, 75 mg",2 h
same,Tmax,"human, plasma, po",2.5 h
same,Tmax,"human, plasma, po, 75 mg",1.99 h
same,half-life,"human, plasma, po, 75 mg",7.59 h
same,AUC,"human, plasma, po, 75 mg, AUC0‐inf, arithmetic mean (percent coefficient of variation), part 1, rimegepant ODT 75 mg alone, single oral dose, N 15",4270 ng·h/mL
same,AUC,"human, plasma, po, 75 mg, AUC0‐inf, geometric least squares mean, part 1, rimegepant 75 mg ODT alone, single oral dose, fasted, N = 15",4110 ng·h/mL
same,AUC,"human, plasma, po, 75 mg, AUC0‐t, arithmetic mean (percent coefficient of variation), part 1, rimegepant ODT 75 mg alone, single oral dose, N 15",4250 ng·h/mL
same,AUC,"human, plasma, po, 75 mg, AUC0‐t, geometric least squares mean, part 1, rimegepant 75 mg ODT alone, single oral dose, fasted, N = 15",4090 ng·h/mL
same,Cmax,"human, plasma, po, 75 mg, arithmetic mean (percent coefficient of variation), part 1, rimegepant ODT 75 mg alone, single oral dose, N 15",862 ng/mL
same,Cmax,"human, plasma, po, 75 mg, geometric least squares mean, part 1, rimegepant 75 mg ODT alone, single oral dose, fasted, N = 15",824 ng/mL
same,"CL/F, arithmetic mean (percent coefficient of variation)","part 1, rimegepant ODT 75 mg alone, single oral dose, N 15",19.26 (31.84) L/h
same,difference in geometric mean t1/2el between treatments,"part 1, rimegepant with cyclosporine vs rimegepant alone",≤ 5%
same,"increase in rimegepant exposure by strong P‐gp inhibitors, lower bound",[3],> 50%
same,"increase in rimegepant exposure by strong P‐gp inhibitors, upper bound",[3],< 2 fold

# Reference: paper PMC9311059, “P‐Glycoprotein and Breast Cancer Resistance Protein Transporter Inhibition by Cyclosporine and Quinidine on the Pharmacokinetics of Oral Rimegepant in Healthy Subjects” (Clinical Pharmacology in Drug Development, 2022)
